“Also recorded” adds a separate entry of the source.
Tests used:
[1] = tested on: RXR AF2; settings: retinoid activity, reporter cells; cited from earlier work
[2] = tested on: immature LC (Langerhans cells); assay: Apoptosis of immature LC, flow cytometry of PI stained nuclei (sub 2N particles) / annexin V; assay type: cell-based, human; settings: for induction of apoptosis / death of immature LC by the substance on its own: no TNFα
[3] = tested on: immature LC (Langerhans cells); assay: Activation of immature LC: HLA-DR and CD86 expression by flow cytometry; assay type: cell-based, human; design: class II or CD86 upregulation on immature LC: dose or concentration left out as unconfirmed; settings: for activation of immature LC (class II / CD86, DRhi-CD86hi) in the presence of TNFα: TNFα 1-10 ng/ml
Protocol: Immature LC were cultured with retinol or vehicle and/or TNFα for 40 h. Cells were washed and incubated with HLA-DR-FITC and CD86-PE or isotype controls for 15 min at 4° C. 10^4 events were then analyzed with a FACScalibur (Becton Dickinson) using CellQuest software (Becton Dickinson). % are given for DRhi CD86hi cells gated as indicated. Data are representative of three experiments on different donors.
FIG. 3A: Day 6 immature LC were cultured for 40 h with TNFα and/or retinoids or vehicle as indicated. Cells were washed and stained with HLA-DR-FITC and CD86-PE or isotype controls for 15 min at 4° C. 10^4 events were then analyzed with a FACScalibur (Becton Dickinson) using CellQuest software (Becton Dickinson). Data are given for DRhi/CD86 hi cells gated as indicated, and are representative of 10 experiments on different donors.
Percentages of DRhi/CD86 hi cells are represented and results are expressed as the mean±SD of at last three experiments on different donors.
Flow Cytometry Analysis. 1×10^5 cells were incubated in 96-well plates (Becton Dickinson Labware, Franklin Lakes, N.J.) for 15 min at 4 ° C. in PBS, 2% human AB serum, and 0.01 M NaN3, with FITC-conjugated anti-DR (Immunotech, Marseille, France) and PE-conjugated CD86 (Pharmingen, San Diego, Calif.) at the appropriate concentration, or with control isotype-matched irrelevant mAbs at the same concentration. After washing, 10^4 events were analyzed with a FACScalibur (Becton Dickinson Immunocytometry Systems, Mountain View, Calif.) using CellQuest software.

[4] = target: T1, RARγ AF2 (Homo sapiens, UniProt P13631); settings: retinoid activity, reporter cells; cited from earlier work; also: key: '+' = agonist; '(+)' = weak agonist; '−' = antagonist; '0' = absence of agonist and antagonist activities
T1 construct: expressed in transfected cells
T1 sequence (P13631 185-419 limits assumed): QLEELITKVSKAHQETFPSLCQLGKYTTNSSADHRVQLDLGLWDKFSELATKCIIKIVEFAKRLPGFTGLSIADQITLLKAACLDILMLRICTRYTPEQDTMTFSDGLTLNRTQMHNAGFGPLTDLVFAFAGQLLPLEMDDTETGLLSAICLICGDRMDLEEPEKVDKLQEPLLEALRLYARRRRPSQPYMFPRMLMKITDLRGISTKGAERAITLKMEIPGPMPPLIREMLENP

[5] = target: T2, RARβ AF2 (Homo sapiens, UniProt P10826); settings: retinoid activity, reporter cells; cited from earlier work; also: key: '+' = agonist; '(+)' = weak agonist; '−' = antagonist; '0' = absence of agonist and antagonist activities
T2 construct: expressed in transfected cells
T2 sequence (P10826 183-417 limits assumed): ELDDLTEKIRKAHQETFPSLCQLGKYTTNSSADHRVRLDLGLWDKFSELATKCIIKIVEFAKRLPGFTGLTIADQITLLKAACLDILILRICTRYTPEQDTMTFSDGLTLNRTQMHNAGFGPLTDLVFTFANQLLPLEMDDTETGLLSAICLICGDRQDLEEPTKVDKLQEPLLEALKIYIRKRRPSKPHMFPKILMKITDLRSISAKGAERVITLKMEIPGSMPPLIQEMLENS

[6] = target: T3, RARα AF2 (Homo sapiens, UniProt P10276); settings: retinoid activity, reporter cells; cited from earlier work; also: key: '+' = agonist; '(+)' = weak agonist; '−' = antagonist; '0' = absence of agonist and antagonist activities
T3 construct: expressed in transfected cells
T3 sequence (P10276 183-417 limits assumed): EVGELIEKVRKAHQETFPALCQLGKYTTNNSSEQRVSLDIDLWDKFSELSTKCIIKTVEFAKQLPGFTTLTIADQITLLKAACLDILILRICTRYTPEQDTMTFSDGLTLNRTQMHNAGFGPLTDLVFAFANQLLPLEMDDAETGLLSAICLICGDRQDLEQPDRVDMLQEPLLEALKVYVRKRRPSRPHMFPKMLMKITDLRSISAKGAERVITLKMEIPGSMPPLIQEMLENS

[7] = target: T4, RARα-RXRα heterodimer (Homo sapiens, UniProt P10276+P19793); settings: retinoid activity, transient transfection; cited from earlier work; also: key: '+' = agonist; '(+)' = weak agonist; '−' = antagonist; '0' = absence of agonist and antagonist activities
T4 construct: expressed in transfected cells
T4 sequence (P10276 1-462): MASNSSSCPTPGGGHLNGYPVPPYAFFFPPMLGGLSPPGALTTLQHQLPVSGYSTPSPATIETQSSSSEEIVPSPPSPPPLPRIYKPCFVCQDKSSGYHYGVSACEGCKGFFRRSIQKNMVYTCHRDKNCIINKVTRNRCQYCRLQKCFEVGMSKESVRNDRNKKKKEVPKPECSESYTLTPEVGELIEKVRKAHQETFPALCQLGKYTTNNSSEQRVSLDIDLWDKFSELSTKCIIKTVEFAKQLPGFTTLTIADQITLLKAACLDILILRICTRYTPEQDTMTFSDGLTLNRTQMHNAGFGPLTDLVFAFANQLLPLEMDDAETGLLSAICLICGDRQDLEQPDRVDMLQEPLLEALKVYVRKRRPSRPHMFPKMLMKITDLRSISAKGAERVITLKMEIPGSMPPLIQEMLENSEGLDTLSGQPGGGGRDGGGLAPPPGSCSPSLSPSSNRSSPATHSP
T4 sequence (P19793 1-462): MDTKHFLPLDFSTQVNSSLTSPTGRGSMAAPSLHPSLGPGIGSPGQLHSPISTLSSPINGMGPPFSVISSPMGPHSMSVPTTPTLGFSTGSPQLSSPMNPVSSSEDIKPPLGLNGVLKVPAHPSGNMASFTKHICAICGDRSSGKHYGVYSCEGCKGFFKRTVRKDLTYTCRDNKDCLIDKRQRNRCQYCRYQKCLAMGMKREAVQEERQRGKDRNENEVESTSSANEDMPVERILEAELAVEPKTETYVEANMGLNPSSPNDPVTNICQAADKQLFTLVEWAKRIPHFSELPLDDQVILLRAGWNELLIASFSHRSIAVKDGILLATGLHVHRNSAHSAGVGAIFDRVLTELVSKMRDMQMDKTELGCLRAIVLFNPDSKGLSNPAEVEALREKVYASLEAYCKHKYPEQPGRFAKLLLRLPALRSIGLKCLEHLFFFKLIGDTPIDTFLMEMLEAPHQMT

[8] = target: T5, RXRα homodimer [(RXR)2] (Homo sapiens, UniProt P19793); settings: retinoid activity, transient transfection; cited from earlier work
T5 construct: expressed in transfected cells
T5 sequence (P19793 1-462): T4 sequence (P19793 1-462)

[9] = 1 nM, two days in culture, mean ± SD
[10] = 10 nM, two days in culture, mean ± SD
[11] = 100 nM, two days in culture, mean ± SD
[12] = 1 μM, two days in culture, mean ± SD

Compound	RXR AF2 [1]	percentage of apoptotic (<2N) particles [2, 9]	percentage of apoptotic (<2N) particles [2, 10]	percentage of apoptotic (<2N) particles [2, 11]	percentage of apoptotic (<2N) particles [2, 12]	induction of apoptosis / death of immature LC by the substance on its own ([2]; result in words)	activation of immature LC (class II / CD86, DRhi-CD86hi) in the presence of TNFα ([3]; result in words)	RARγ AF2 [4]	percentage of apoptotic (<2N) particles ([2]; 100 nM SR11237 + 1 nM ligand)	percentage of apoptotic (<2N) particles ([2]; 100 nM SR11237 + 10 nM ligand)	percentage of apoptotic (<2N) particles ([2]; 100 nM SR11237 + 100 nM ligand)	percentage of apoptotic (<2N) particles ([2]; 100 nM SR11237 + 1 μM ligand)	RARβ AF2 [5]	RARα AF2 [6]	also measured
CC1=C(/C=C/C(C)=C\C=C\C(C)=C\C(=O)O)C(C)(C)CCC1 [Compound 9cRA, 9-cis retinoic acid, reference compound]	+	≦5%	≦5%	8 ± 3%	30 ± 9%	induced a similar dose- and time-dependent increase in death	upregulate								class II or CD86 upregulation on immature LC ([3]; in the absence or at low concentrations of TNFα): did not significantly induce
CC1(C)CC=C(c2ccccc2)c2cc(/C=C/c3ccc(C(=O)O)cc3Cl)ccc21 [Compound III, (E)-3-Chloro-4-[2-(5,6-dihydro-5,5-dimethyl-8-phenyl-2-naphthalenyl)-ethenyl] benzoic acid]	0	≦5%	≦5%	≦5%	≦5%		weak effect; also recorded: upregulate	0	≦5%	≦5%	16 ± 3%	30 ± 2%	+	0	synergy with the pan-RXR agonist SR11237 to induce LC death ([2]; result in words): synergized with the pan-RXR agonist to induce LC death
C=C(c1ccc(C(=O)O)cc1)c1cc2c(cc1C)C(C)(C)CC=C2C(C)C [Compound V, 4-[1-[5,6-Dihydro-3,5,5-trimethyl-8-(1-methylethyl)-2-naphthalenyl]ethenyl]benzoic acid]	+	≦5%	≦5%	≦5%	≦5%	neither SR11237 (Table 3) nor BMS749 exhibited an apoptotic effect	also synergized with TNFα to activate LC	−					−	−	RARα-RXR DR5 [7]: −; (RXR)2 AF2 [8]: +
CC1(C)CC=C(C#Cc2ccccc2)c2cc(/C=C/c3ccc(C(=O)O)cc3)ccc21 [Compound VIII]	0							−	≦5%	≦5%	≦5%	≦5%	−	−	inhibition of retinoid-induced apoptosis / cell death of immature LC ([2]; result in words): inhibited retinol-induced cell death; also recorded: strongly inhibited; effect on Compound II / SR11237 synergy for TNFα-induced LC activation ([3]; result in words): inhibited; effect on TNFα-SR11237 synergism for LC activation ([3]; result in words): only a weak effect; effect on synergy between TNFα and retinol, tRA or Compound I on LC activation ([3]; result in words): inhibited; effect on 9cRA-induced LC activation ([3]; with TNFα, result in words): only partially blocked
